Results published in US20040266766A1, “Selective urokinase inhibitors” (Wilex AG, priority 2001, published 2004).
Counter-ions that a name gives are not always drawn. Like-named read-outs stand apart in the source and are kept apart here.

Tests used:
urokinase (uPA) = target: T1, urokinase (uPA) (Homo sapiens, UniProt P00749); experiment: In vitro inhibition of urokinase (Ki according to Dixon, chromogenic substrate); format: biochemical
T1 construct: purchased Calbiochem-Novabiochem GmbH, Bad Soden, Germany
How it was run: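 Chromogenic read-out in 0.05 mol/l Tris, 0.154 mol/l NaCl, pH 8.0, with inhibitor, substrate (Pefachrome uPA, Pefachrome PL or Pefabloc TH) and protease, incubated 10 min at 30 °C. Absorbance at 405 nm was read after ca. 30 min (30 cycles). Ki was derived by Dixon linear regression.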

Plasmin = Plasmin (Homo sapiens, UniProt P00747); experiment: In vitro inhibition of plasmin (Ki according to Dixon); format: biochemical
Procedure: (§1) In order to determine the inhibitory activity, 200 μl Tris buffer (0.05 mol/l containing the inhibitor, 0.154 mol/l NaCl, pH 8.0), 25 μl substrate (Pefachrome uPA, Pefachrome PL or Pefabloc TH in H2O; Pentapharm Ltd, Basle, Switzerland) and 50 μl urokinase (Calbiochem-Novabiochem GmbH, Bad Soden, Germany) or another appropriate protease e.g. plasmin, thrombin or FXa are incubated for 10 minutes at 30° C. After ca. 30 minutes and 30 cycles the absorption is determined at 405 nm by means of a microplate reader (Mediators PHL, Aureon Biosystems, Vienna, Austria). The Ki values were determined according to Dixon by linear regression using a computer program.

Thrombin = Thrombin (Homo sapiens, UniProt P00734); experiment: In vitro inhibition of thrombin (Ki according to Dixon); format: biochemical
Procedure: as §1

FXa = FXa (Homo sapiens, UniProt P00742); experiment: In vitro inhibition of FXa (Ki according to Dixon); format: biochemical
Procedure: as §1

PK = PK (Homo sapiens, UniProt P03952); experiment: In vitro inhibition of PK (Ki); format: biochemical; details: summary table
Procedure: as §1

Caco-2 cell monolayers = experiment: Caco-assay: transport across Caco-2 cell monolayers; format: in vitro ADME, human; details: for % amount in the basolateral compartment: 10 μg/ml apical, four hours
Procedure: Transport of the compounds WX-508, WXC-316, WXC-318, WXC-324, WXC-340, WX-532, WX-538, WX-550 and WX-582 across Caco-2 cell monolayers was investigated. In this experiment the bioavailability of the said compounds after oral administration was assessed.
Caco-2-cells (American Type Culture Collection, Rockville, Md., USA) were cultured in Dulbecco's modified Eagle medium (DMEM) (Life Technologies, Gibco BRL, UK) containing 10% vol/vol heat-denatured foetal calf serum (FCS), 1% vol/vol non-essential amino acids, 160 U/ml benzylpenicillin and 100 U/ml streptomycin (Sigma Chemical, St. Louis, Mo., USA). The cells are kept at 37° C. in an atmosphere comprising 95% air and 5% CO2 at 90% relative air humidity. The cells are cultured in […] culture flasks, the medium being replaced every second day and the cells are trypsinized once per week.
For the transport investigations the Caco-2 cells are cultured on porous polycarbonate filter membranes having a pore size of 0.4 μm and a surface of 4.7 cm^2 in clusters of 6 wells (Costar Transwell, Badhoevedorp, Netherlands). The cells are inoculated on each filter at an initial density of 10^4 cells/cm^2. These cells are kept at 37° C. in one of the atmospheres described above. The medium is replaced every second day for a period of three weeks.
On the day of the transport experiment the culture medium was replaced by the same volume of Hank's balanced saline solution (HBSS) buffered with 30 mM HEPES at pH 7.2 (transport medium) and the cells are allowed to equilibrate for 1 hour. Afterwards the apical medium is replaced by 1.5 ml of a solution containing one of the compounds in HBSS/HEPES (10 μg/ml). Cell monolayers are incubated for four hours. Samples of the apical and basolateral compartments are removed at the end of the experiments and used to quantitatively determine the transport of the respective compounds.
The transepithelial electric resistance (TEER) is measured before and after equilibration using a Milicell ERS meter which was connected to a pair of electrodes in order to ensure the integrity of the monolayers formed on the filters. TEER is also measured at the end of the experiments to ensure that the cell monolayer remains coherent.
Samples are taken from the apical and the basolateral side and analysed in a beta counter after adding a scintillation cocktail. All experiments were carried out three times.

[1] = Oral bioavailability and plasma kinetics in mice (serum concentration); format: in vivo, Balb/c mice; details: mouse; for concentration at 20 min / concentration at 40 min / concentration at 60 min: female, Balb/c, serum, po; for concentration at 20 min: sample at 20 minutes; for concentration at 40 min: sample at 40 minutes; for concentration at 60 min: sample at 60 minutes; for c in the serum 1st analysis / c in the serum 2nd analysis: 10 mg/kg i.v.
[2] = list of test substances of Example 17, read-out: Ki human uPA
[3] = summary table, read-out: Ki uPA
[4] = 30 mg/kg, 30 mg/kg oral, read-out: c in the serum 1st analysis
[5] = 30 mg/kg, 30 mg/kg oral, read-out: c in the serum 2nd analysis
[6] = 300 mg/kg, 300 mg/kg oral, read-out: c in the serum 1st analysis
[7] = 300 mg/kg, 300 mg/kg oral, read-out: c in the serum 2nd analysis

Sequence of Plasmin (P00747 581-810 limits assumed, species assumed): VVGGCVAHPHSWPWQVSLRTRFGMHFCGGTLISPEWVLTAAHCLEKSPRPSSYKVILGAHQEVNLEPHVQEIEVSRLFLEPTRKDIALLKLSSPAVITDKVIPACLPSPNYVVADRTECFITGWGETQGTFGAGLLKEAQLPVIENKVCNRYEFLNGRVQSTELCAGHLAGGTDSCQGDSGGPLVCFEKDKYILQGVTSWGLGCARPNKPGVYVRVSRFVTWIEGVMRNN
Sequence of Plasmin (P00747 97-580 partner limits assumed, species assumed): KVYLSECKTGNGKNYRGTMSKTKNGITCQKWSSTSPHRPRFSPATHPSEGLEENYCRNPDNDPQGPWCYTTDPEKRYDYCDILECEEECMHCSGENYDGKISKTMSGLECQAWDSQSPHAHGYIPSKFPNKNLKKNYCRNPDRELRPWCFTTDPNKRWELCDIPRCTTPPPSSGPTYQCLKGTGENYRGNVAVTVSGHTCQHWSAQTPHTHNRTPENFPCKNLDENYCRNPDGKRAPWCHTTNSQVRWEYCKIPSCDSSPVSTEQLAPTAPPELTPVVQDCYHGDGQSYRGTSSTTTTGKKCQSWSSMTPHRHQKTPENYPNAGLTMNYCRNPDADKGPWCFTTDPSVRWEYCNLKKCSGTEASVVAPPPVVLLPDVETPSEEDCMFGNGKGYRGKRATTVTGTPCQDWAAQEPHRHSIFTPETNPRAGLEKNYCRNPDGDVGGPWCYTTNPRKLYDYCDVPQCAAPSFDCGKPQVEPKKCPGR
Sequence of PK (P03952 20-638): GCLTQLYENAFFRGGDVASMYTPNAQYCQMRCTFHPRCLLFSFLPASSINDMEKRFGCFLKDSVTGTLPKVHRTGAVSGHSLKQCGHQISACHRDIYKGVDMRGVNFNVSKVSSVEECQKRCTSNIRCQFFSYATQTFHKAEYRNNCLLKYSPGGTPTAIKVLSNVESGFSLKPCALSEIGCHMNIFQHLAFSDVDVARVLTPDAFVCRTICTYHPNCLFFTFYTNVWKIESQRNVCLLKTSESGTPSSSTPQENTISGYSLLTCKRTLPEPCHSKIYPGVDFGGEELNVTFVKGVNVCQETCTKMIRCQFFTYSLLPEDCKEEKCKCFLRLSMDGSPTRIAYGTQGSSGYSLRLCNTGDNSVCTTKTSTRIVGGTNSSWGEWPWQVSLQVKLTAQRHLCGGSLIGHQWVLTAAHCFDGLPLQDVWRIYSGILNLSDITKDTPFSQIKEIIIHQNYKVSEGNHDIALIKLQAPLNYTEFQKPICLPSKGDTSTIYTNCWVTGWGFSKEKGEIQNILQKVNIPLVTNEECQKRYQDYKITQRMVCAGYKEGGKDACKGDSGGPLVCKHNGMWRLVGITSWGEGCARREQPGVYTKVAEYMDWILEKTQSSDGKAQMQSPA
Sequence of FXa (P00742 235-488 limits assumed): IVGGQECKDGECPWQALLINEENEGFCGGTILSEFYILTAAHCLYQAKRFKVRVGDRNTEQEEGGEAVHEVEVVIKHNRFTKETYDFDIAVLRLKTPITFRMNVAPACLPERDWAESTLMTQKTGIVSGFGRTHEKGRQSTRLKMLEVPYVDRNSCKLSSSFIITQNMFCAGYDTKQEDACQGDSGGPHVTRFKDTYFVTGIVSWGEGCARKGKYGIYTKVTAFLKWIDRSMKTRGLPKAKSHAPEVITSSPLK
Sequence of FXa (P00742 41-179 partner limits assumed): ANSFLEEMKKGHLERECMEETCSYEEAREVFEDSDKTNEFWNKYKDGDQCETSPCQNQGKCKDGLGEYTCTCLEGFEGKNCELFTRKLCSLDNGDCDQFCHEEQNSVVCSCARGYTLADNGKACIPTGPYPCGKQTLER

Structure (SMILES) | Ki (urokinase (uPA); [2]) [µM] | Ki (urokinase (uPA); read-out: Ki uPA) [µM] | Ki (urokinase (uPA); [3]) [µM] | Ki Plasmin (Plasmin) | Ki Plasmin (Plasmin; summary table) | Ki Thrombin (Thrombin) | Ki Thrombin (Thrombin; summary table) | Ki (FXa) [µM] | Ki (PK) [µM] | % amount in the basolateral compartment (Caco-2 cell monolayers; first value column) [%] | % amount in the basolateral compartment (Caco-2 cell monolayers; second value column) [%] | % amount in the basolateral compartment (Caco-2 cell monolayers; third value column) [%] | Caco-2 assay % basolateral (Caco-2 cell monolayers; first series, first value) [%] | Caco-2 assay % basolateral (Caco-2 cell monolayers; first series, second value) [%] | Caco-2 assay % basolateral (Caco-2 cell monolayers; first series, third value) [%] | Caco-2 assay % basolateral (Caco-2 cell monolayers; second series, first value) [%] | Caco-2 assay % basolateral (Caco-2 cell monolayers; second series, second value) [%] | Caco-2 assay % basolateral (Caco-2 cell monolayers; second series, third value) [%] | concentration at 20 min [1, 4] [ng/mL] | concentration at 20 min [1, 5] [ng/mL] | other results
N=C(N)Nc1ccc(CNC(=O)CNC(=O)C(CO)NS(=O)(=O)Cc2cccc([N+](=O)[O-])c2)cc1 (stereo not drawn) [WX-C316, 3-Nitrobenzyl-sulfonyl-(D)-Ser-Gly-(4-guanidinobenzyl)amide hydrochloride] | 0.09 | 0.09 | 0.09 | no inh. at 100 μM *) | no inh. at 100 μM *) | no inh. at 100 μM *) | no inh. at 100 μM *) | 32.4 | 875 | 0.2 | 0.2 | 3.6 | 0.2 | 0.2 | 3.4 | 0.1 | 0.1 | 3.6 | 500 | 600 | concentration at 40 min [1, 4]: 5900 ng/mL; concentration at 40 min [1, 5]: 7100 ng/mL; concentration at 60 min [1, 4]: 400 ng/mL; concentration at 60 min [1, 5]: 500 ng/mL; concentration at 20 min [1, 6]: 6000 ng/mL; concentration at 20 min [1, 7]: 7200 ng/mL; concentration at 40 min [1, 6]: 21800 ng/mL; concentration at 40 min [1, 7]: 32100 ng/mL; concentration at 60 min [1, 6]: 5300 ng/mL; concentration at 60 min [1, 7]: 5800 ng/mL; c in the serum 1st analysis ([1]; time of sample collection 0): 45.4 µg/mL; c in the serum 2nd analysis ([1]; time of sample collection 0): 67.5 µg/mL; c in the serum 1st analysis ([1]; time of sample collection 10): 12.4 µg/mL; c in the serum 2nd analysis ([1]; time of sample collection 10): 14.3 µg/mL; c in the serum 1st analysis ([1]; time of sample collection 30): 2.7 µg/mL; c in the serum 2nd analysis ([1]; time of sample collection 30): 2.6 µg/mL
N=C(N)Nc1ccc(CNC(=O)CNC(=O)C(CO)NS(=O)(=O)Cc2cccc(Cl)c2)cc1 (stereo not drawn) [WX-C318, 3-Chlorobenzyl-sulfonyl-(D)-Ser-Gly-(4-guanidinobenzyl)amide hydrochloride] | 0.047 | 0.047 | 0.047 | no inh. at 100 μM *) | no inh. at 100 μM *) | no inh. at 100 μM *) | no inh. at 100 μM *) | 36 | 176 | 0.4 | 1.0 | 4.5 | 0.4 | 1.0 | 4.5 | 0.2 | 0.6 | 7.0 | 100 | 200 | concentration at 40 min [1, 5]: 50 ng/mL; concentration at 60 min [1, 4]: 200 ng/mL; concentration at 60 min [1, 5]: 200 ng/mL; concentration at 20 min [1, 6]: 100000 ng/mL; concentration at 20 min [1, 7]: 82600 ng/mL; concentration at 40 min [1, 6]: 5400 ng/mL; concentration at 40 min [1, 7]: 6200 ng/mL; concentration at 60 min [1, 6]: 7500 ng/mL; concentration at 60 min [1, 7]: 7700 ng/mL; c in the serum 2nd analysis ([1]; time of sample collection 0): 48.4 µg/mL; c in the serum 1st analysis ([1]; time of sample collection 10): 4.3 µg/mL; c in the serum 2nd analysis ([1]; time of sample collection 10): 5.5 µg/mL; c in the serum 1st analysis ([1]; time of sample collection 30): 0.7 µg/mL; c in the serum 2nd analysis ([1]; time of sample collection 30): 1.4 µg/mL
